Experimental data: publication PMC8893036 (European journal of medicinal chemistry, 2022)
pKi: −log10 of the molar value. Like-named read-outs stand apart in the source and are kept apart here.

What was measured:
human A1 receptor = conditions: cited from earlier work
human A2A receptor = conditions: cited from earlier work
ABCG2 [1] = molecular target: T1, ABCG2 (Homo sapiens, UniProt Q9UNQ0)
T1 sequence (Q9UNQ0 1-655): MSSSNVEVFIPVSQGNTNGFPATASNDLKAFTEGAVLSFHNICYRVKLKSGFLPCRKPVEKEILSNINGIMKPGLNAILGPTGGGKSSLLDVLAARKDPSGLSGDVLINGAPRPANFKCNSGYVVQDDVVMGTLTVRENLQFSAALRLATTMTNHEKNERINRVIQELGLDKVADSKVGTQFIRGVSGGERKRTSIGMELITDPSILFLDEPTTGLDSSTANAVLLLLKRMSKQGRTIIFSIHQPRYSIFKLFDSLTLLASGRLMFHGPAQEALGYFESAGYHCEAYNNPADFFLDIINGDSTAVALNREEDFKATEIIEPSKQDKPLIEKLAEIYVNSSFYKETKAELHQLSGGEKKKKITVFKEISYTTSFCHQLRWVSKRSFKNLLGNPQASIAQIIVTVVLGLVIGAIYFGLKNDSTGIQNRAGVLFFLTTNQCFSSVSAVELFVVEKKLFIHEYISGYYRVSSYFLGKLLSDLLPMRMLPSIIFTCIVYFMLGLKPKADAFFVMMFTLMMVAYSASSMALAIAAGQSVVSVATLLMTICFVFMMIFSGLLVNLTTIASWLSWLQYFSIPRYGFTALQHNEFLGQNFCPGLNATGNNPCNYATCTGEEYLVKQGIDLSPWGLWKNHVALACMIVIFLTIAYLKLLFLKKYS

[2] = molecular target: T2, human A3 adenosine receptor (Homo sapiens, UniProt P0DMS8); conditions: agonists; Tables S1 – S4; cited from earlier work
T2 sequence (P0DMS8 1-318): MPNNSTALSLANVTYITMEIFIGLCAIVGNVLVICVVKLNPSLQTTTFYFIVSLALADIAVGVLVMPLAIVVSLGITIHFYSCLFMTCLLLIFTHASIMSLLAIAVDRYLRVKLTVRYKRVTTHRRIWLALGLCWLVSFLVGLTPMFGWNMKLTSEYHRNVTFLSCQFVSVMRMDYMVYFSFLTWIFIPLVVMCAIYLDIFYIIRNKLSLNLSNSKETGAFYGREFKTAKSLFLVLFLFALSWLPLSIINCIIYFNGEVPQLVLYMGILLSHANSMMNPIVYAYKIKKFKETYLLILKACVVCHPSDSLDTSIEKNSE

ABCG2 [3] = molecular target: T1, ABCG2; experiment: ATPase activity of ABCG2, total membranes of High-Five insect cells
ABCG2 [4] = molecular target: T1, ABCG2; experiment: in vitro; conditions: pH 6.8
P-gp (ABCB1) = conditions: cited from earlier work
[5] = molecular target: mouse A3 adenosine receptor; conditions: read-out: A3 adenosine receptor affinity Ki; mouse homologue; cited from earlier work

In the case of COc1cc(CCNC2=NC(C#Cc3ccc(Cl)s3)=NC3=NC=NC32)ccc1O (centres unmarked) [Compound 37c], the “activity at human A1 receptor” value (human A1 receptor; adenine series) is given as “inactive” and the “activity at human A2A receptor” value (human A2A receptor; adenine series) is given as “inactive”.
In the case of CCCOC(=O)[C@]12C[C@@H]1[C@@H](n1cnc3c(NC)nc(C#Cc4ccc(Cl)s4)nc31)[C@H](O)[C@@H]2O [Compound 45], the “modulation of ABCG2 ATP hydrolysis” value (ABCG2 [1]) is listed as “stimulated ATP hydrolysis at multiple concentrations” and the “human A3 adenosine receptor affinity” value [2] is listed as “single digit nM affinity”.
In the case of CCOC(=O)[C@]12C[C@@H]1[C@@H](n1cnc3c(NCCc4ccc(O)c(OC)c4)nc(C#Cc4ccc(Cl)s4)nc31)[C@H](O)[C@@H]2O [Compound 55], the “ATPase activity of ABCG2 % Stimulation (upward arrow)” value (ABCG2 [1]; human, 20 min, 2.5 μM, pH 6.8) was at least 50%.
In the case of CNC(=O)[C@]12C[C@@H]1[C@@H](n1cnc3c(N[C@H]4C[C@@H]4c4ccc(F)c(F)c4)nc(C#Cc4cccc(F)c4)nc31)[C@H](O)[C@@H]2O [Compound 15], the “modulation of ABCG2 ATP hydrolysis” value (ABCG2 [1]; human, 20 min, 2.5 μM, pH 6.8) is given as “stimulated ATP hydrolysis at 2.5 μM, but not 10 μM” and the “human A3 adenosine receptor affinity” value [2] is given as “single digit nM affinity”.
With CNC(=O)[C@H]1O[C@@H](n2cnc3c(NCc4cccc(I)c4)nc(Cl)nc32)[C@H](O)[C@@H]1O [Compound 4, reference compound] the “modulation of ABCG2 ATP hydrolysis” value (ABCG2 [1]) was “stimulated ATP hydrolysis at multiple concentrations”.
For CNC(=O)[C@]12C[C@@H]1[C@@H](n1cnc3c(NCc4cccc(Cl)c4)nc(C#Cc4cccc(Cl)c4)nc31)[C@H](O)[C@@H]2O [Compound 10], the “modulation of ABCG2 ATP hydrolysis” value (ABCG2 [3]) was “stimulated ATP hydrolysis at 2.5 μM, but not 10 μM”.
Work on CNC(=O)[C@]12C[C@@H]1[C@@H](n1cnc3c(NCc4cccc(-n5cc(-c6ccc(F)c(F)c6)nn5)c4)nc(C#Cc4ccc(F)cc4)nc31)[C@H](O)[C@@H]2O [Compound 16] yielded an inhibition at 20 min, 2.5 µM (ABCG2 [4]) of at least 50%.
For CNC(=O)[C@]12C[C@@H]1[C@@H](n1cnc3c(NCc4cccc(-n5cc(-c6ccc(F)c(F)c6)nn5)c4)nc(C#Cc4ccc(F)cc4F)nc31)[C@H](O)[C@@H]2O [Compound 19], the “modulation of ABCG2 ATP hydrolysis” value (ABCG2 [1]; human, 20 min, 2.5 μM, pH 6.8) was “inhibited only at 10 μM”.
For CNc1nc(C#Cc2ccc(Cl)s2)nc2c1ncn2[C@H]1[C@H](O)[C@H](O)[C@@]2(C(=O)Oc3ccccc3)C[C@H]12 [Compound 50], the “modulation of ABCG2 ATP hydrolysis” value (ABCG2 [1]) is listed as “stimulated ATP hydrolysis at multiple concentrations” and the “human A3 adenosine receptor affinity” value [2] is listed as “single digit nM affinity”.
For CNC(=O)[C@]12C[C@@H]1[C@@H](n1cnc3c(NCc4cccc(-n5cc(-c6ccc(F)c(F)c6)nn5)c4)nc(C#Cc4ccc(F)c(F)c4)nc31)[C@H](O)[C@@H]2O [Compound 17], the “human A3 adenosine receptor affinity” value [2] is given as “single digit nM affinity” and the “effect on ATPase activity of P-gp” value (P-gp (ABCB1)) is given as “partially inhibited the basal ATPase activity of P-gp”.
With CNC(=O)[C@]12C[C@@H]1[C@@H](n1cnc3c(NCc4cccc(-n5cc(-c6ccc(F)c(F)c6)nn5)c4)nc(C#Cc4ccc(C(F)(F)F)cc4)nc31)[C@H](O)[C@@H]2O [Compound 21] the “modulation of ABCG2 ATP hydrolysis” value (ABCG2 [1]; human, 20 min, 2.5 μM, pH 6.8) was “inhibited only at 10 μM”.
With CCCNc1nc(C#Cc2ccc(Cl)s2)nc2c1ncn2[C@H]1[C@H](O)[C@H](O)[C@@]2(C(=O)NC)C[C@H]12 [Compound 26] the “modulation of ABCG2 ATP hydrolysis” value (ABCG2 [1]) was “stimulated ATP hydrolysis at multiple concentrations”.
For O[C@@H]1[C@H](O)[C@@H]2C[C@@H]2[C@H]1n1cnc2c(NCc3cccc(Cl)c3)nc(C#Cc3ccc(F)c(F)c3)nc21 [Compound 30], the “increase of P-gp ATPase activity” value (P-gp (ABCB1); 2.5 μM) is listed as 116%.
With CNc1nc(C#Cc2ccc(Cl)s2)nc2c1ncn2[C@H]1[C@H](O)[C@H](O)[C@@]2(C(=O)OC)C[C@H]12 [Compound 27] the “modulation of ABCG2 ATP hydrolysis” value (ABCG2 [1]) was “stimulated ATP hydrolysis at multiple concentrations”.
In the case of CCOC(=O)[C@]12C[C@@H]1[C@@H](n1ccc3c(NCCCc4ccc(OC)c(O)c4)nc(C#Cc4ccc(Cl)s4)nc31)[C@H](O)[C@@H]2O [Compound 64], the “ATPase activity of ABCG2 % Stimulation (upward arrow)” value (ABCG2 [1]; human, 20 min, 2.5 μM, pH 6.8) was at least 50%.
For CNC(=O)[C@]12C[C@@H]1[C@@H](n1cnc3c(NCc4cccc(-n5cc(-c6ccc(F)c(F)c6)nn5)c4)nc(C#Cc4cc(F)c(F)c(F)c4)nc31)[C@H](O)[C@@H]2O [Compound 20], the “modulation of ABCG2 ATP hydrolysis” value (ABCG2 [1]) was “inhibited ATP hydrolysis at both concentrations”.
For CNC(=O)[C@]12C[C@@H]1[C@@H](n1cnc3c(NCc4cccc(Cl)c4)nc(C#Cc4ccc(F)c(F)c4)nc31)[C@H](O)[C@@H]2O [Compound 5], the “human A3 adenosine receptor affinity” value [2] is listed as “single digit nM affinity”, the “effect on ATPase activity of P-gp” value (P-gp (ABCB1)) is listed as “stimulate the ATPase activity of P-gp” and the “modulation of ABCG2 ATP hydrolysis” value (ABCG2 [3]) is listed as “stimulated ATP hydrolysis at multiple concentrations”. The “ATPase activity of ABCG2 % Stimulation (upward arrow)” value (ABCG2 [3]; 2.5 μM, basal ATPase activity = 0%, mean ± SD, three experiments) was at least 50%.
For CNC(=O)[C@]12C[C@@H]1[C@@H](n1cnc3c(NC)nc(C#Cc4ccc(Cl)s4)nc31)[C@H](O)[C@@H]2O [Compound 25], the “modulation of ABCG2 ATP hydrolysis” value (ABCG2 [3]) was “stimulated ATP hydrolysis at 2.5 μM, but not 10 μM”.
With CNC(=O)[C@]12C[C@@H]1[C@@H](n1cnc3c(NCc4cccc(Cl)c4)nc(-n4cc(-c5ccc(F)c(F)c5)nn4)nc31)[C@H](O)[C@@H]2O [Compound 28] the “modulation of ABCG2 ATP hydrolysis” value (ABCG2 [1]; human, 20 min, 2.5 μM, pH 6.8) was “inhibited only at 10 μM”.
For CCOC(=O)[C@]12C[C@@H]1[C@@H](n1ccc3c(NCCCc4ccc(OC)c(O)c4)nc(C#Cc4ccccc4)nc31)[C@H](O)[C@@H]2O [Compound 63], the “ATPase activity of ABCG2 % Stimulation (upward arrow)” value (ABCG2 [1]; human, 20 min, 2.5 μM, pH 6.8) was at least 50%.
For CNC(=O)[C@H]1O[C@@H](n2cnc3c(NC)nc(C#Cc4ccc(Cl)s4)nc32)[C@H](O)[C@@H]1O [Compound 32], the “effect on ATPase activity of P-gp” value (P-gp (ABCB1)) is given as “very weak at P-gp”.
For CCCNc1nc(C#Cc2ccc(Cl)s2)nc2c1ncn2[C@@H]1O[C@H](C(=O)NC)[C@@H](O)[C@H]1O [Compound 33], the “modulation of ABCG2 ATP hydrolysis” value (ABCG2 [1]) was “stimulated ATP hydrolysis at multiple concentrations”.
For CCOC(=O)[C@]12C[C@@H]1[C@@H](n1ccc3c(NCCc4ccccc4)nc(C#Cc4ccccc4)nc31)[C@H](O)[C@@H]2O [Compound 60], the pKi [5] is given as under 5.00, the “activity at human A1 receptor” value (human A1 receptor) is given as “inactive” and the “activity at human A2A receptor” value (human A2A receptor) is given as “inactive”.
For CNC(=O)[C@]12C[C@@H]1[C@@H](n1cnc3c(NCc4cccc(Cl)c4)nc(C#Cc4ccc(Cl)s4)nc31)[C@H](O)[C@@H]2O [Compound 29], the “modulation of ABCG2 ATP hydrolysis” value (ABCG2 [1]) was “stimulated ATP hydrolysis at multiple concentrations”.
For CNC(=O)[C@]12C[C@@H]1[C@@H](n1cnc3c(NCc4cccc(Cl)c4)nc(C#Cc4ccccc4)nc31)[C@H](O)[C@@H]2O [Compound 8], the “modulation of ABCG2 ATP hydrolysis” value (ABCG2 [3]) was “stimulated ATP hydrolysis at 2.5 μM, but not 10 μM”.
